# What was measured:
# Assay type in all cases: functional, cell-based
# [1] = tested on: A498; test: Cytotoxicity against human kidney carcinoma cell lines A4982LM
# [2] = tested on: A549; test: Cytotoxicity against […] cell lines A549 was determined; details: Homo sapiens
# [3] = tested on: HT-29; test: Cytotoxicity against Colon cancer cell lines HT-29 was determined; details: Homo sapiens
# [4] = Cytotoxicity against Breast cancer cell lines MDA-231 was determined; details: Homo sapiens
# [5] = Cytotoxicity against […] cancer cell lines PACA2 was determined; details: Homo sapiens
# [6] = tested on: PC-3; test: Cytotoxicity against prostate cancer cell lines PC-3 was determined; details: Homo sapiens
# [7] = tested on: UMUC3; test: Cytotoxicity against bladder cancer cell lines UMUC3 was determined; details: Homo sapiens
# [8] = tested on: MCF7; test: Cytotoxicity against human breast carcinoma cell lines MCF-7
Compound,IC50 [1] [nM],IC50 [2] [nM],IC50 [3] [nM],IC50 [4] [nM],IC50 [5] [nM],IC50 [6] [nM],IC50 [7] [nM],IC50 [8] [nM]
[O-][S+]1Sc2ccccc2S1,850,151,78.9,627,982,62.9,366,209
COc1cccc2c1C(=O)c1c(O)c3c(c(O)c1C2=O)C[C@@](O)(C(=O)CO)C[C@@H]3O[C@H]1C[C@H](N)[C@H](O)[C@H](C)O1 [DOXORUBICIN],52.8,,61.8,1.95,8.7,,9.2,

# — ChEMBL document CHEMBL1134960, “Benzotrithiole 2-oxide: a new family of thiol-activated DNA-cleaving functionalities” (Bioorg Med Chem Lett, 2002)
